Assay results taken from patent publication US5583227A, “Antiulcer compounds having a substituted alkynyl or quinoxaline nucleus and methods of making thereof” (Mochida Pharmaceutical Co. Ltd., priority 1994, dated 1996).
Where two headings read alike, the source gives them in different places.

How the values were obtained:
[1] = target: T1, H^+,K^+ adenosine triphosphatase (Sus scrofa, UniProt P19156); test: H+,K+ adenosine triphosphatase inhibition (proton pump inhibition); format: biochemical, hog
T1 construct: hog stomach was homogenized and subjected to ultracentrifugation to obtain a microsome fraction; from tissue; host or cells: hog stomach, microsome fraction (discontinuous Ficoll gradient)
T1 sequence (P19156 2-1034 limits assumed): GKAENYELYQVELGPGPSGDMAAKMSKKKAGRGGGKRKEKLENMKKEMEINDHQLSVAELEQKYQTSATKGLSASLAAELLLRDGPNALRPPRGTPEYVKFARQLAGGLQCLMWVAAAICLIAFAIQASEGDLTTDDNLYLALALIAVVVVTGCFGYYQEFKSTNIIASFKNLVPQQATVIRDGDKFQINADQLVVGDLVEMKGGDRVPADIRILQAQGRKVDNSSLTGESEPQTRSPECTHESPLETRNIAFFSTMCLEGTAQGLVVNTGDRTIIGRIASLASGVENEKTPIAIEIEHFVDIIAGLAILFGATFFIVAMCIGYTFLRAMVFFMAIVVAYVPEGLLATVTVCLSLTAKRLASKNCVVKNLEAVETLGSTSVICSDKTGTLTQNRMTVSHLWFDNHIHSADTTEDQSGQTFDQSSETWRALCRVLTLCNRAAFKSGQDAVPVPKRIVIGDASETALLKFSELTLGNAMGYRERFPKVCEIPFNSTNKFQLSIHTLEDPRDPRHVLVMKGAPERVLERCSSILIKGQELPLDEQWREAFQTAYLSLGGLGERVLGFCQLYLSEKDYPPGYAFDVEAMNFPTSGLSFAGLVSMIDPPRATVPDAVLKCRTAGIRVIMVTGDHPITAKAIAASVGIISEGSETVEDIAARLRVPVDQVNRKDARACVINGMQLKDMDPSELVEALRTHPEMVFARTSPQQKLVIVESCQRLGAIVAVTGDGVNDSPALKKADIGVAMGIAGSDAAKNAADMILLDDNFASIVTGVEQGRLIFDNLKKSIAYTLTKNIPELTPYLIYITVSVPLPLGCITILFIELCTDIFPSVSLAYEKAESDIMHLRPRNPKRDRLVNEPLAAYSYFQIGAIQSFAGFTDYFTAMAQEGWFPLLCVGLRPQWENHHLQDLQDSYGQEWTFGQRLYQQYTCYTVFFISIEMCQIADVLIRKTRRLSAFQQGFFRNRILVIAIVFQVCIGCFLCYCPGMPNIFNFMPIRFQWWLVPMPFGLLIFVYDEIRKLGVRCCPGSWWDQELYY
T1 sequence (P18434 whole entry partner): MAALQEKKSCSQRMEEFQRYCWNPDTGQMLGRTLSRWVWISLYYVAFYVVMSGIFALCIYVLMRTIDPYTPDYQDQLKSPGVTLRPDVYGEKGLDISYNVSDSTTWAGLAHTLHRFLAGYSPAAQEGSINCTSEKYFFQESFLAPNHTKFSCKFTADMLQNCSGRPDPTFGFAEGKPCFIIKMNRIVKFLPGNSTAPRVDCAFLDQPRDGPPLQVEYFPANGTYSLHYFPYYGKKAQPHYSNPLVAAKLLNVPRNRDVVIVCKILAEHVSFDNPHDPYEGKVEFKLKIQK
Experimental: Proton pump inhibition was evaluated by the H^+,K^+ adenosine triphosphatase (to be referred to as "H^+,K^+ ATPase" hereinafter)inhibition.
That is, hog stomach was homogenized and subjected to ultracentrifugation to obtain a microsome fraction, and the microsomes were subjected to discontinuous density gradient ultracentrifugation using 0 and 9% Ficoll solutions to obtain a fraction containing H^+,K^+ ATPase. The H^+,K^+ ATPase activity was determined by measuring the released inorganic phosphorus using ATP as the substrate and an inorganic phosphorus measuring reagent PiSET(IATRON) manufactured by IATRON.

Pylorus ligation ulcer = test: Pylorus ligation ulcer; format: in vivo, Wistar male rats; settings: Rattus norvegicus; oral, 14 hours after pylorus ligation; read-out: Antiulcer activity, Pylorus ligation ulcer, ED50 value
Experimental: (Test Example 4) Pylorus ligation ulcer
Basically according to the method of Shay et al. (Gastroenterology, vol.5, pp.43-61, 1945), each of the compounds shown in Examples was orally administered to Wistar male rats which have been subjected to fasting of 48 hours (free drinking). After 30 minutes of the compound administration,the pylorus of each rat was ligated.
After 14 hours of standing, the stomach was excised. The length and width of each ulcer developed in the fore-stomach part were measured under a stereoscopic microscope to calculate the ulcer area (length×width). In accordance with the method of Takagi et al. (Japan. J. Pharmacol., vol.24, pp.357-361, 1974), ulcer index was calculated based on the total ulcer area per animal. The dose of each test compound required to inhibit 50% of the ulcer index of the control group was calculated (ED50).

gastric acid secretion = test: Gastric acid secretion inhibition activity (pylorus-ligated, histamine-stimulated rats); format: in vivo, Sprague-Dawley (SD) male rats; settings: Rattus norvegicus; 30 mg/kg oral; pylorus ligated 3 hours later; histamine hydrochloride 30 mg/kg s.c.; total acidity over 3 hours; read-out: Acid secretion inhibition rate (%)
Experimental: (Test Example 2) Gastric acid secretion inhibition activity
Basically according to the method of Satoh et (Journal of Pharmacology and Experimental Therapeutics, vol.248, pp.806-815, 1988), each of the compounds shown in Examples was orally administered at a dose of 30 mg/kg to Sprague-Dawley (SD) male rats which have been subjected to fasting of 24 hours (free drinking).
After 3 hours of the compound administration, the pylorus of each rat was ligated under urethane anesthesia, and 30 mg of histamine hydrochloride per Kg was administered to the rat by subcutaneous injection. After 3 hours of the ligation, the gastric juice was collected to measure its volume and calculate total acidity (mEqH^+ /3 hours) by sodium hydroxide titration. The inhibition rate (%) was calculated by the following formula in which A represents the total gastric juice acidity of control group rat and B represents the total gastric juice acidity of test compound-administered group rat. [formula]

Acute toxicity test = settings: mouse, in vivo; oral, mice, one week observation
Description: (Test Example 6) Acute toxicity test
Each of the compounds shown in Examples was orally administered to three ICR male mice per group.

Stress ulcer = test: Stress ulcer; format: in vivo, Wistar male rats; settings: Rattus norvegicus; oral, 7 hours stress loading in water bath at 23° C.; read-out: Antiulcer activity, Stress ulcer, ED50 value
Experimental: (Test Example 3) Stress ulcer
Basically according to the method of Takagi et al. (Japanese Journal of Pharmacology (to be referred to as "Japan. J. Pharmacol." hereinafter), vol.18, pp.9-18, each of the compounds shown in Examples was orally administered to Wistar male rats which have been subjected to fasting of 24 hours (free drinking). Each rat was transferred into a stress cage 30 minutes thereafter and subjected to stress loading by suspending the cage in a water bath controlled at 23° C. to such a depth that the rat was soaked up to its breast.
After 7 hours of the stress loading, the rat was recovered from the water bath to excise the stomach. The length (mm) of each ulcer developed in the stomach was measured under a stereoscopic microscope, and the total length of ulcers per one animal was used as an ulcer index. The dose of each test compound required to inhibit 50% of the ulcer index of the control group was calculated (ED50). The results are shown in Table 3, together with the results of the following pylorus ligation ulcer test.

[2] = H+,K+ ATPase fraction from hog stomach microsomes, ATP substrate, released inorganic phosphorus, read-out: Enzyme inhibition IC50 value (converted)

CCCOCC#Cc1nc(C(=O)OC)c(C(=O)OC)nc1C#CCOCCC [Example 1, 5,6-bis(3-n-propoxy-1-propynyl)pyrazine-2,3-dicarboxylic acid dimethyl ester]
IC50 [1, 2]: 87.5 µM | ED50 (Pylorus ligation ulcer): 28 mg/kg | inhibition in vivo at 30 mg/kg (gastric acid secretion): 50% | LD50 at 168 h (Acute toxicity test): > 1000 mg/kg

COCCCC#Cc1nc(C(=O)OC)c(C(=O)OC)nc1C#CCCCOC [Example 2, 5,6-bis(5-methoxy-1-pentynyl)pyrazine-2,3-dicarboxylic acid dimethyl ester]
ED50 (Stress ulcer): 60 mg/kg | ED50 (Pylorus ligation ulcer): 66 mg/kg | inhibition in vivo at 30 mg/kg (gastric acid secretion): 66% | LD50 at 168 h (Acute toxicity test): > 1000 mg/kg

CCCOCC#Cc1nc(C(=O)O)c(C(=O)O)nc1C#CCOCCC [Example 5, 5,6-bis(3-n-propoxy-1-propynyl)pyrazine-2,3-dicarboxylic acid]
inhibition in vivo at 30 mg/kg (gastric acid secretion): 61%

COCCC#Cc1nc2ccccc2nc1C#CCCOC [Example 12, 2,3-bis(4-methoxy-1-butynyl)quinoxaline]
IC50 [1, 2]: 279 µM | ED50 (Stress ulcer): 24 mg/kg | inhibition in vivo at 30 mg/kg (gastric acid secretion): 41% | LD50 at 168 h (Acute toxicity test): > 1000 mg/kg

CCOC(C)(C)C#Cc1nc2ccccc2nc1C#CC(C)(C)OCC [Example 13, 2,3-bis(3-ethoxy-3-methyl-1-butynyl)quinoxaline]
IC50 [1, 2]: 31.4 µM

CC[C@@H](C#Cc1nc2ccccc2nc1C#C[C@H](CC)OCCOC)OCCOC [Example 18, 2,3-bis((S)-3-(2-methoxyethoxy)-1-pentynyl)quinoxaline]
IC50 [1, 2]: 124 µM

CC[C@H](C#Cc1nc2ccccc2nc1C#C[C@@H](CC)OCCOC)OCCOC [Example 19, 2,3-bis((R)-3-(2-methoxyethoxy)-1-pentynyl)quinoxaline]
inhibition in vivo at 30 mg/kg (gastric acid secretion): 28%

CC[C@@H](C#Cc1nc2ccccc2nc1C#C[C@@H](CC)OCCOC)OCCOC [Example 21, 2-((R)-3-(2-methoxyethoxy)-1-pentynyl)-3-((S)-3-(2-methoxyethoxy)-1-pentynyl)quinoxaline]
IC50 [1, 2]: 102 µM

CCOCCO[C@H](C#Cc1nc2ccccc2nc1C#C[C@H](CC)OCCOCC)CC [Example 22, 2,3-bis((S)-3-(2-ethoxyethoxy)-1-pentynyl)quinoxaline]
IC50 [1, 2]: 29.6 µM

CCOCCO[C@@H](C#Cc1nc2ccccc2nc1C#C[C@@H](CC)OCCOCC)CC [Example 23, 2,3-bis((R)-3-(2-ethoxyethoxy)-1-pentynyl)quinoxaline]
IC50 [1, 2]: 54.7 µM

CCOCCO[C@H](C#Cc1nc2ccccc2nc1C#C[C@@H](CC)OCCOCC)CC [Example 25, 2-((R)-3-(2-ethoxyethoxy)-1-pentynyl)-3-((S)-3-(2-ethoxyethoxy)-1-pentynyl)quinoxaline]
IC50 [1, 2]: 34.2 µM

COC1(C#Cc2nc3ccccc3nc2C#CC2(OC)CCCC2)CCCC1 [Example 26, 2,3-bis(2-(1-methoxycyclopentyl)ethynyl)quinoxaline]
IC50 [1, 2]: 32 µM

CCOC(C)C#Cc1nc2ccccc2nc1Cl (stereo not shown) [Example 29, 2-chloro-3-(3-ethoxy-1-butynyl)quinoxaline]
IC50 [1, 2]: 215 µM

COCCOCC#Cc1nc2ccccc2nc1C(C)(C)C [Example 30, 2-t-butyl-3-(3-(2-methoxyethoxy)-1-propynyl)quinoxaline]
IC50 [1]: 60.3 µM

CCOC(C)C#Cc1nc2ccc(C(C)=O)cc2nc1C#CC(C)OCC (stereo not shown) [Example 33, 6-acetyl-2,3-bis(3-ethoxy-1-butynyl)quinoxaline]
IC50 [1, 2]: 9.88 µM | inhibition in vivo at 30 mg/kg (gastric acid secretion): 23%

COC(=O)c1nc(C#CC(C)OC)c(C#CC(C)OC)nc1C(=O)OC (stereo not shown) [Example 53]
IC50 [1, 2]: 5.27 µM

COCCOC(C)C#Cc1nc(C(=O)OC)c(C(=O)OC)nc1C#CC(C)OCCOC (stereo not shown) [Example 56]
IC50 [1, 2]: 13.4 µM | ED50 (Stress ulcer): 12 mg/kg | ED50 (Pylorus ligation ulcer): 17 mg/kg | inhibition in vivo at 30 mg/kg (gastric acid secretion): 80%

COC(=O)c1nc(C#CC(OC)OC)c(C#CC(OC)OC)nc1C(=O)OC [Example 59]
IC50 [1, 2]: 8.92 µM | ED50 (Stress ulcer): 18 mg/kg | ED50 (Pylorus ligation ulcer): 21 mg/kg | inhibition in vivo at 30 mg/kg (gastric acid secretion): 79% | LD50 at 168 h (Acute toxicity test): > 1000 mg/kg

CCC#Cc1nc(C(=O)OC)c(C(=O)OC)nc1C#CC(C)OC (stereo not shown) [Example 62]
IC50 [1, 2]: 5.15 µM | inhibition in vivo at 30 mg/kg (gastric acid secretion): 69%

CCOC(=O)c1nc(C#CCOC)c(C#CCOC)nc1C(=O)OCC [Example 69]
inhibition in vivo at 30 mg/kg (gastric acid secretion): 70%

COC(C)C#Cc1nc(C#N)c(C#N)nc1C#CC(C)OC (stereo not shown) [Example 73]
IC50 [1, 2]: 1.7 µM

CCCC#Cc1nc(C#N)c(C#N)nc1C#CCCOC [Example 77]
IC50 [1, 2]: 1.44 µM | inhibition in vivo at 30 mg/kg (gastric acid secretion): 55%

CCCC#Cc1nc(C#N)c(C#N)nc1C#CCOC [Example 81]
IC50 [1]: 1.51 µM | ED50 (Stress ulcer): 42 mg/kg | ED50 (Pylorus ligation ulcer): 5.2 mg/kg | inhibition in vivo at 30 mg/kg (gastric acid secretion): 61% | LD50 at 168 h (Acute toxicity test): > 1000 mg/kg

CCCCC#Cc1nc(C#N)c(C#N)nc1C#CCCCC [Example 89]
IC50 [1, 2]: 0.344 µM

CSCCC#Cc1nc(C#N)c(C#N)nc1C#CCCSC [Example 95]
IC50 [1, 2]: 0.613 µM

CCCCC#Cc1nc(C#N)c(C#N)nc1C(=O)OCC [Example 101]
IC50 [1]: 5.31 µM

CCCCC#Cc1nc(C#N)c(C#N)nc1C(F)(F)F [Example 102]
IC50 [1]: 3.95 µM

COCC#Cc1nc2ccccc2nc1C#CCOC [Example 107]
ED50 (Stress ulcer): 29 mg/kg | ED50 (Pylorus ligation ulcer): 30 mg/kg

CCOCC#Cc1nc2ccccc2nc1C#CCOCC [Example 108]
LD50 at 168 h (Acute toxicity test): > 1000 mg/kg

COC(C)C#Cc1nc2ccccc2nc1C#CC(C)OC (stereo not shown) [Example 111]
IC50 [1, 2]: 9.17 µM

CCOCCOC(C)C#Cc1nc2ccccc2nc1C#CC(C)OCCOCC (stereo not shown) [Example 113]
LD50 at 168 h (Acute toxicity test): > 1000 mg/kg

CCOC(C#Cc1nc2ccccc2nc1C#CC(CC)OCC)CC (stereo not shown) [Example 115]
LD50 at 168 h (Acute toxicity test): > 1000 mg/kg

CCC(C#Cc1nc2ccccc2nc1C#CC(CC)OCCC(=O)OC)OCCC(=O)OC (stereo not shown) [Example 123]
IC50 [1, 2]: 87.9 µM

CCC(C#Cc1cnc2ccccc2n1)OCCOC (stereo not shown) [Example 127]
IC50 [1, 2]: 326 µM

CCOC(C)C#Cc1nc2ccc(OC)cc2nc1C#CC(C)OCC (stereo not shown) [Example 129]
IC50 [1, 2]: 25.3 µM

COCCOCC#Cc1nc2ccc(OC)cc2nc1C#CCOCCOC [Example 133]
IC50 [1, 2]: 20.8 µM | inhibition in vivo at 30 mg/kg (gastric acid secretion): 44%

CCOC(C)C#Cc1nc2cccc(OC)c2nc1C#CC(C)OCC (stereo not shown) [Example 140]
IC50 [1, 2]: 34 µM

CCC(C#Cc1nc2cccc(C)c2nc1C#CC(CC)OCCOC)OCCOC (stereo not shown) [Example 144]
IC50 [1, 2]: 28.3 µM

CCOC(C)C#Cc1nc2cc(OC)c(OC)cc2nc1C#CC(C)OCC (stereo not shown) [Example 145]
IC50 [1, 2]: 25.1 µM

CCOCCOC(C#Cc1nc2ccc(CO)cc2nc1C#CC(CC)OCCOCC)CC (stereo not shown) [Example 151]
IC50 [1, 2]: 18.6 µM

CCCOCCOC(C)(C)C#Cc1nc2ccccc2nc1C#CC(C)(C)OCCOCCC [Example 158, 2,3-bis(3-(2-n-propoxyethoxy)-3-methyl-1-butynyl)quinoxaline]
IC50 [1, 2]: 17.1 µM

CCOCCOC(C)(C)C#Cc1nc2ccc(Cl)cc2nc1C#CC(C)(C)OCCOCC [Example 159, 6-chloro-2,3-bis(3-(2-ethoxyethoxy)-3-methyl-1-butynyl)quinoxaline]
IC50 [1, 2]: 16.7 µM
